# Assay results published in PMC6264278, “Corydaline Inhibits Multiple Cytochrome P450 and UDP-Glucuronosyltransferase Enzyme Activities in Human Liver Microsomes” (Molecules, 2011).
# Target: T1, UGT1A9 (Homo sapiens, UniProt O60656)
# T1 construct: using pooled human liver microsomes; tissue BD Gentest Co. H161; host or cells: pooled human liver microsomes
# T1 sequence (O60656 26-530): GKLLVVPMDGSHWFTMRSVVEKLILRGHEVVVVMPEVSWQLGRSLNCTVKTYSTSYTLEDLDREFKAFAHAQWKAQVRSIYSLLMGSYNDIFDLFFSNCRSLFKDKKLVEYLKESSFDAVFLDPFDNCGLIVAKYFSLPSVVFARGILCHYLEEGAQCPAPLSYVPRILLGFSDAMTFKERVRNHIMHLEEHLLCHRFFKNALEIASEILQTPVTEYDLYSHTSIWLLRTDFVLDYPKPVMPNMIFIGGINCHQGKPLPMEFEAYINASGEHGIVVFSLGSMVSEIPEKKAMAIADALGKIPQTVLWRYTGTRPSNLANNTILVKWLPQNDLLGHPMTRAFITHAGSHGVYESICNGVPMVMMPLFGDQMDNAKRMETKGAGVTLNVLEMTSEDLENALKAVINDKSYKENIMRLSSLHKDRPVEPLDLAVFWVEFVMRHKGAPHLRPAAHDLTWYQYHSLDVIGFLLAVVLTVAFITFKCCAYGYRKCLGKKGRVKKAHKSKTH
# Assay: UGT1A9 propofol glucuronidation inhibition in pooled human liver microsomes
# Format: in vitro ADME
# Description: The inhibitory potencies (IC50 values) of corydaline were also determined with UGT assays in the presence and absence of corydaline (final concentrations of 1–1,000 μM with acetonitrile concentration less than 0.5% v/v) using pooled human liver microsomes. 17β-Estradiol 3-glucuronidation, trifluoperazine glucuronidation, propofol glucuronidation, and azidothymidine glucuronidation activities were determined as probe activities for UGT1A1, UGT1A4, UGT1A9, and UGT2B7, respectively, using LC/MS/MS. Incubation mixtures were prepared in a total volume of 100 μL, as follows: Pooled human liver microsomes (0.2 mg/mL for 17β-estradiol, trifluoperazine and azidothymidine; 0.1 mg/mL for propofol), 2 mM UDPGA, 25 μg/mL alamethicin, 10 mM MgCl2, 50 mM tris buffer (pH 7.4), UGT-isoform specific probe substrate (20 μM 17β-estradiol for UGT1A1, 5 μM trifluoperazine for UGT1A4, 10 μM propofol for UGT1A9, or 100 μM azidothymidine for UGT2B7), and various concentrations of corydaline (1−1000 μM). Reactions were initiated by addition of UDPGA, and incubations were carried out at 37 °C in a shaking water bath for 30 min. […]
# Glucuronides produced from UGT isoform-specific substrates were respectively determined by LC/MS/MS. […] Quantification was performed by SRM of the [M+H]^+ ion for trifluoperazine glucuronide and azidothymidine glucuronide or [M−H]^− for 17β-estradiol 3-glucuronide and propofol glucuronide and the related product ion for each metabolite.
# Reactions were initiated by addition of NADPH at 37 °C and stopped after 15 min by placement of the incubation tubes on ice and addition of ice-cold methanol (100 μL) containing an internal standard (2.0 μg/mL ^13C6-4-hydroxydiclofenac for diclofenac, 0.5 μg/mL d3-4-hydroxymephenytoin for mephenytoin, or 0.5 μg/mL d9-1-hydroxy-bufuralol for bufuralol). The incubation mixtures were centrifuged at 13,000 × g for 5 min, and aliquots (5 μL) of the supernatants were analyzed by LC/MS/MS. […] Aliquots (5 μL) were analyzed by LC/MS/MS. […]
smiles,measurement,setting,value
"COc1cc2c(cc1OC)C1C(C)c3ccc(OC)c(OC)c3CN1CC2 (stereo not drawn) [Corydaline, 2,3,9,10-tetramethoxy-13-methyl-5,8,13,13a-tetrahydro-6H-isoquino[3,2-a]isoquinoline]",Ki,"human liver microsomes, 10-30 μM propofol",37.3 ± 14.4 µM
same,"inhibition mode, UGT1A9 propofol glucuronidation","mixed competitive-noncompetitive equation, nonlinear regression",competitive
same,IC50,"pooled human liver microsomes (H161), 10 μM propofol, mean ± SD, n = 3",39.4 ± 6 µM
